Tests used:
Type in all cases: in vivo
[1] = system: neutrophils and eosinophils introduced into the airway; assay: Inflammatory cells (neutrophils and eosinophils) in bronchoalveolar lavage fluid, Diff-Quik staining, asthma-induced mice; settings: asthma-induced mice; for cell numbers of neutrophils and eosinophils: Experiment Result 7, orally administered daily, FIG. 19
Method: (§1) Eight-week-old female […] mice (Orient Bio Korea Inc., Korea) having no certain pathogen were accommodated in an aseptic laminar-flow cabinet, and bred by supplying a standard solid feed ad libitum. When the following experiment was performed, the mice were made to correspond to 7- to 8-weeks old, and all laboratory animals were managed according to the protocol approved by the Institutional Animal Care and Use Committee of the Chonbuk National University Medical School.
(§2) Also, on days 21 and 28 from the experimental starting date, the mice were put into a plastic box (Plexiglas (Rohm & Haas, Philadelphia, Pa.) exposure chamber; 24.5 cm×40.5 cm×15.0 cm), and 1.5% ovalbumin was evaporated using an ultrasonic nebulizer (NE-U12; output 0.8 mL/min; Omron, Japan), and injected into the box for 30 minutes so that the mice inhaled the evaporated ovalbumin (secondary challenge).
(§3) After the mice were anesthetized, a thin tube was inserted into the airway, and a piston process was repeated using a syringe filled with 0.2 mL of physiological saline to obtain a bronchoalveolar lavage fluid. The bronchoalveolar lavage fluid obtained through this piston process was stored at −70° C. when it was not immediately used in the experiments.
50 μL of the bronchoalveolar lavage fluid obtained in Experimental Method 2 was put on a slide used for the cytospin, and centrifuged for 30 minutes. Thereafter, Diff-Quik staining was performed, and inflammatory cells (neutrophils and eosinophils) were observed using a microscope.
Preparation Example 3 (α,δ-NA-L-G) or α,δ N-acetyl-D-glutamine (α,δ-NA-D-G) was orally administered to the asthma-induced mice of Experimental Method 1 daily from the experimental starting date at a concentration of 50, 100, or 200 μg/kg/day, and the cell numbers of neutrophils and eosinophils introduced into the airway through the method of Experimental Method 3 were measured. The results are shown in A and B of FIG. 3. In this case, the cell numbers were measured at 10 hours (neutrophils) or 48 hours (eosinophils) after a secondary challenge.

IL-4, IL-5, and IL-13 = assay: Cytokines in bronchoalveolar lavage fluid by ELISA, asthma-induced mice; settings: asthma-induced mice; for expression levels of the cytokines (IL-4, IL-5, and IL-13): Experiment Result 7, orally administered daily, FIG. 20
Method: as §1, §2, §3
(§4) A level of cytokines in the bronchoalveolar lavage fluid obtained in Experimental Method 2 was measured using an ELISA kit. Here, ELISA kits specifically manufactured for TNF-α, IL-4, IL-5, and IL-13 were used.
Preparation Example 3 (α,δ-NA-L-G) or α,δ N-acetyl-D-glutamine was orally administered to the asthma-induced mice of Experimental Method 1 at a concentration of 100, 200, 400 or 800 μg/kg/day 30 minutes before a secondary airway challenge, and levels of IL-4, IL-5, and IL-13 were measured through the method described above in Experimental Method 4 24 hours after the secondary challenge. The results are shown in A and B of FIG. 4.

asthma-induced mice = assay: Bronchial hypersensitivity reaction (Rrs value, methacholine), asthma-induced mice; settings: for bronchial hypersensitivity reaction: Experiment Result 7, orally administered daily, FIG. 21
Method: as §1, §2
45 mg/kg of sodium pentobarbital was intraperitoneally injected into the mice prepared in Experimental Method 1 to anesthetize the mice, and the airways were cut and an 18 gauge needle was inserted into the airways. Thereafter, the needle was connected to a small-sized animal respirator connected to a computer, and the computer system was adjusted to a respiration rate of 150 breaths per minute. Then, methacholine in the form of aerosol was fed at an increasing concentration of 5.0 to 50 mg/mL so that the mice inhaled the methacholine. Then, an airway response was measured, and indicated as an Rrs value.
Preparation Example 3 (α,δ-NA-L-G) or α,δ N-acetyl-D-glutamine was orally administered to the asthma-induced mice of Experimental Method 1 at a concentration of 200 or 400 μg/kg/day 30 minutes before a secondary airway challenge, and the bronchial hypersensitivity reaction was measured 48 hours after the secondary challenge using the method described in Experimental Method 5. The results are shown in A and B of FIG. 5.

CK2α protein = assay: Western blot of CK2α protein in lung of asthma-induced mice; settings: administered daily; 1 or 2 hours after the secondary challenge; FIG. 10
Method: as §2
A tissue was extracted from each of the mice manufactured in Experimental Method 1, and finely ground to a cell level. Thereafter, the cells were lysed in a cell lysis buffer containing a protease inhibitor to obtain a cell lysate. The cell lysate was centrifuged to obtain protein. Then, an equivalent amount of the proteins obtained from the cells were loaded on an SDS-PAGE gel and electrophoresed. The proteins present in the electrophoresed gel were transferred to a PVDF membrane. The PVDF membrane was washed, and added to a blocking buffer in which 5% skim milk was included in a TBS-T buffer, and incubated at room temperature. Then, the PVDF membrane was incubated at room temperature with an antibody diluted 1:1,000 in a TBS-T buffer containing 3% BSA. […] The PVDF membrane was washed three times with a TBS-T buffer, and visualized and quantified using an ECL Western blotting detection reagent. […]
(§5) Specifically, the secondary challenge (ovalbumin injection) was performed according to the method described above in Experimental Method 1, and the lungs were extracted after an hour, and then measured according to the method described above in Experimental Method 7. […] Also, the level of TNF-α corresponding to an NK-κB-dependent cytokine was measured by ELISA according to the method described above in Experimental Method 4. […]
The secondary challenge (ovalbumin injection) was performed according to the method described above in Experimental Method 1, and the lungs were extracted after 1 or 2 hours, and then measured according to the method described above in Experimental Method 7. […]

NF-κB and TNF-α = assay: NF-κB (Western blot) and TNF-α (ELISA) in asthma-induced mice; settings: administered daily
Method: as §2, §4
A tissue was extracted from each of the mice manufactured in Experimental Method 1, and finely ground to a cell level. Thereafter, the cells were lysed in a cell lysis buffer containing a protease inhibitor to obtain a cell lysate. The cell lysate was centrifuged to obtain protein. Then, an equivalent amount of the proteins obtained from the cells were loaded on an SDS-PAGE gel and electrophoresed. The proteins present in the electrophoresed gel were transferred to a PVDF membrane. The PVDF membrane was washed, and added to a blocking buffer in which 5% skim milk was included in a TBS-T buffer, and incubated at room temperature. Then, the PVDF membrane was incubated at room temperature with an antibody diluted 1:1,000 in a TBS-T buffer containing 3% BSA. Then, the PVDF membrane was washed with a TBS-T buffer, and incubated at room temperature for an hour with a dilute solution containing HRP-bound IgG. The PVDF membrane was washed three times with a TBS-T buffer, and visualized and quantified using an ECL Western blotting detection reagent.
Here, antibodies specific to elastin, caspase-3, collagen, MKP-1, p-cPLA, p-p38, NF-κB(p65), CK2α, GAPDH, or β-actin were used in the Western blot.
Specifically, the secondary challenge (ovalbumin injection) was performed according to the method described above in Experimental Method 1, and the lungs were extracted after an hour, and then measured according to the method described above in Experimental Method 7. The results are shown in A of FIG. 9. Also, the level of TNF-α corresponding to an NK-κB-dependent cytokine was measured by ELISA according to the method described above in Experimental Method 4. The results are shown in B of FIG. 9. […]
as §5, with “The” for “Specifically, the”, “30 or 60 minutes,” for “an hour,”

| SMILES | cell numbers of neutrophils and eosinophils [1] | expression levels of the cytokines (IL-4, IL-5, and IL-13) (IL-4, IL-5, and IL-13) | bronchial hypersensitivity reaction (asthma-induced mice) | further results |
| --- | --- | --- | --- | --- |
| CCOC(=O)[C@H](CCC(=O)NC(C)=O)NC(C)=O [Preparation Example 4, Ethyl 2,5-diacetamido-5-oxopentanoate] | decreased | decreased | inhibited | – |
| COC(=O)[C@H](CCC(=O)NC(C)=O)NC(C)=O [Preparation Example 6] | decreased | decreased | inhibited | – |
| CC(=O)NC(=O)CC[C@H](NC(C)=O)C(=O)OCc1ccccc1 [Preparation Example 2, Benzyl 2,5-diacetamido-5-oxopentanoate] | decreased | decreased | inhibited | – |
| Oc1ccc(-c2nc(-c3ccncc3)c(-c3ccc(F)cc3)[nH]2)cc1 [SB202190, reference compound] | – | – | – | level of the CK2α protein (CK2α protein): decreased |
| CC(=O)NC(=O)CC[C@@H](NC(C)=O)C(=O)O [α,δ N-acetyl-D-glutamine, reference compound] | – | – | – | inflow of the neutrophils and eosinophils into the airway ([1]; oral daily 50, 100 or 200 μg/kg/day, neutrophils 10 hours, eosinophils 48 hours after secondary challenge, FIG. 3): not inhibited; levels of the cytokines (IL-4, IL-5, IL-13) (IL-4, IL-5, and IL-13; oral 100, 200, 400 or 800 μg/kg/day, regardless of the concentration, 24 hours after secondary challenge, FIG. 4B): did not inhibit; Rrs value (bronchial hypersensitivity reaction) (asthma-induced mice; oral 200 or 400 μg/kg/day 30 minutes before secondary challenge, 48 hours after, methacholine 5.0 to 50 mg/mL, FIG. 5): did not exhibit an inhibitory effect |
| Brc1c(Br)c(Br)c2n[nH]nc2c1Br [inhibitor of the CK2α protein, TBBt, reference compound] | – | – | – | level of the presence of the TNF-α protein (NF-κB and TNF-α; ELISA, FIG. 11B): decreased; level of the NF-κB protein (NF-κB and TNF-α; at 30 and 60 minutes after secondary challenge, FIG. 11): decreased |

Reference: patent US20230026277A1, “COMPOSITION FOR PREVENTION, ALLEVIATION, OR TREATMENT OF RESPIRATORY DISEASE” (MICROX CO., LTD., priority 2019, published 2023)
